{"source": "patent US20040219600A1", "about": "“Method for determining sensitivity to environmental toxins and susceptibility to parkinson's disease” (priority 2002, published 2004)", "key": {"[1]": {"test_system": "glutathione S-transferase pi2 (GSTp2) mRNA", "assay": "Real time PCR of GSTp2 mRNA in substantia nigra after MPTP", "type": "in vivo, mouse", "conditions": "for expression of GSTp2: C57B1/6 mice; for GSTp2 levels: SW mice", "source_text": "Using real time PCR technology we are able to measure relative or absolute mRNA levels in from very small sample pools. The RT-PCR reaction includes a forward primer, a primer with a fluorescent 5′ reporter dye and a 3′ quencher dye, and a reverse primer, constructed to hybridize with the target of interest. The 5′ to 3′ activity of the DNA polymerase cleaves the primer between the reporter and the quencher only if the primer hybridizes to the target. The primer is then displaced from the target, polymerization of the strand continues, and the produce accumulates with each cycle. The exponential amplification of product correlates with the initial number of target molecules when normalized to an endogenous reference, and the threshold cycle calculated (a cycle during which there is an exponential accumulation of produce occurring), as long as the efficiency of the target amplification and the efficiency of the reference amplification are approximately equal. To examine the mRNA expression levels of GSTp2, we used real time PCR analysis to examine baseline levels in C57B1/6 and SW mice. […] The expression pattern in SW mice is different.\nHiguchi et al (Higuchi R, et al., Simultaneous Amplification and Detection of Specific DNA Sequences, Biotech. (NY) 10:413-17 (1992)) pioneered the analysis of PCR kinetics by constructing a system that detects PCR products as they accumulate. This “real-time” system includes the intercalator ethidium bromide in each amplification reaction, an adapted thermal cycler to irradiate the samples with ultraviolet light, and detection of the resulting fluorescence with a computer-controlled cooled CCD camera. mRNA amplification produces increasing amounts of double-stranded DNA, which binds ethidium bromide, resulting in an increase in fluorescence. By plotting the increase in fluorescence versus cycle number, this method allows one to make precise quantitative measurements of mRNA expression. […]\nHiguchi et al (Higuchi R, et al., Simultaneous Amplification and Detection of Specific DNA Sequences, Biotechnology (N Y) 10:413-17 (1992)) pioneered the analysis of PCR kinetics by constructing a system that detects PCR products as they accumulate. This “real-time” system includes the intercalator ethidium bromide in each amplification reaction, an adapted thermal cycler to irradiate the samples with ultraviolet light, and detection of the resulting fluorescence with a computer-controlled cooled CCD camera. Amplification produces increasing amounts of double-stranded DNA, which binds ethidium bromide, resulting in an increase in fluorescence. By plotting the increase in fluorescence versus cycle number, this method […] allows one to make precise quantitative measurements of mRNA expression.\nWe will be quantitating levels of glutathione S-transferase pi2 mRNA using this technique in place of traditional Northern blots since we have a limited amount of material to generate mRNA and real-time PCR amplification can give precise results with a small amount of sample material. […] Quantitative measurements are made based on the amount of fluorescence detected by amplification of the intervening primer. Details of this method are presented in numerous papers such as (Freeman W M, et al., Quantitative RT-PCR: Pitfalls and Potential. Biotechniques 26:112-122, 124-115 (1999)) as well as from the ABI website. […]"}, "[2]": {"test_system": "postnatal substantia nigra (SN) neurons", "assay": "MPTP-induced cell loss in postnatal substantia nigra cultures", "type": "cell-based, mouse", "conditions": "for loss of T-positive neurons: MPTP 50×10-9"}, "[3]": {"test_system": "embryonic midbrain neurons", "conditions": "C57B1/6 and Swiss-Webster cultures from embryonic midbrain; cited from earlier work"}, "SNpc neurons": {"test_system": "SNpc neurons", "assay": "Count of TH-positive SNpc cells one week after subcutaneous MPTP", "conditions": "80 mg/kg MPTP SC (4 x 20 mg/kg)", "experimental": "C57BL/6J (Jackson Laboratory), Swiss-Webster (SWR, Harlan) and C57BL/6J×SWR used in these experiments were between 3 and 5 months of age. […] All animals were generated within our vivarium at St. Jude Children's Hospital and were maintained on a 12:12 hour light: dark cycle with ad libitum food and water. Animals were treated in accord with Animal Care and Use Committee requirements. The analysis presented here is based on neuroanatomical and morphometric data from 58 animals, all of which were genotyped as described below.\nEach animal was given a total of 80 mg/kg of MPTP, using a dosage regimen of 4 equal subcutaneous injections of 20 mg/kg, one given every 2 hours. Mice were monitored over the next 24 hours for the degree of mortality and the presence of seizures. […]\nPrior to counting TH-positive cells, the rostral to caudal boundaries of the SNpc were identified (German, D. C., et al., The Neurotoxin MPTP Causes Degeneration of Specific Nucleus A8, A9 and A10 Dopaminergic Neurons in the Mouse, Neurodegeneration, 5:299-312 (1996)). […] TH-positive cells within the SNpc in one section per slide were counted using a 20× objective (total magnification 200×). […] The number of cells in the SNpc from several animals were also counted using unbiased stereological measurements using the Bioquant image analysis system (R & 1 Biometrics, Nashville, Tenn.)."}}}
{"molecule": "CN1CC=C(c2ccccc2)CC1", "note": "[MPTP, 1-methyl-4-phenyl-1,2,3,6-tetrahydropyridine]", "values": [{"measurement": "expression of GSTp2", "setting": "[1]; 24 hours after MPTP", "value": 50, "unit": "%"}, {"measurement": "expression of GSTp2", "setting": "[1]; eight hours after the first injection of MPTP", "value": "increases"}, {"measurement": "GSTp2 levels", "setting": "[1]; 8 hours after administration of MPTP", "value": "decrease"}, {"measurement": "GSTp2 levels", "setting": "[1]; 24 hours after MPTP", "value": "return to baseline levels"}, {"measurement": "lower induction of glutathione S-transferase pi2 in C57B1/6 mice compared to Swiss-Webster", "setting": "[1]; forty eight hours after MPTP administration", "value": 50, "unit": "%"}, {"measurement": "loss of T-positive neurons", "setting": "[2]; SN cultures derived from SWR mice", "value": "10±3", "unit": "%"}, {"measurement": "loss of T-positive neurons", "setting": "[2]; SN cultures from C57B1/6 mice", "value": "50±5", "unit": "%"}, {"measurement": "percent cell loss in vitro as fraction of the in vivo value", "setting": "[2]; in vitro SN culture versus in vivo", "value": "approximately 80%"}, {"measurement": "cell death", "setting": "[3]", "value": "little cell death"}, {"measurement": "number of SNpc neurons following MPTP treatment", "setting": "SNpc neurons; C57B1/6 animals", "value": "3300±200"}, {"measurement": "number of SNpc neurons following MPTP treatment", "setting": "SNpc neurons; SWR animals", "value": "5480+/−239"}]}
